The test can be described thus: Inhibition of C3b activation relative to compstatin.

Structures are written as SMILES. Positions of bridges follow the written chain, without caps; N, C: chain ends. Residues, ends and D or L forms follow the SMILES beside them.

The compound `CC[C@H](C)[C@H](NC(C)=O)C(=O)N[C@H]1CSSC[C@@H](C(=O)N[C@H](C(N)=O)[C@@H](C)O)NC(=O)[C@H](CCCNC(=N)N)NC(=O)[C@H](Cc2cnc[nH]2)NC(=O)[C@H](C)NC(=O)CNC(=O)[C@H](Cc2c[nH]c3ccccc23)NC(=O)[C@H](CC(=O)O)NC(=O)[C@H](CCC(N)=O)NC(=O)[C@H](Cc2c[nH]c3ccc(C)cc23)NC(=O)[C@H](C(C)C)NC1=O` came in with a logIC50 of 1.79.
Then `CC[C@H](C)[C@H](NC(C)=O)C(=O)N[C@H]1CSSC[C@@H](C(=O)N[C@H](C(N)=O)[C@@H](C)O)NC(=O)[C@H](CCCNC(=N)N)NC(=O)[C@H](Cc2cnc[nH]2)NC(=O)[C@H](C)NC(=O)CNC(=O)[C@H](Cc2c[nH]c3ccccc23)NC(=O)[C@H](CC(=O)O)NC(=O)[C@H](CCC(N)=O)NC(=O)[C@H](Cc2ccc(C(=O)c3ccccc3)cc2)NC(=O)[C@H](C(C)C)NC1=O`, with 1.95.
The value for `CC[C@H](C)[C@H](NC(C)=O)C(=O)N[C@H]1CSSC[C@@H](C(=O)N[C@H](C(N)=O)[C@@H](C)O)NC(=O)[C@H](CCCNC(=N)N)NC(=O)[C@H](Cc2cnc[nH]2)NC(=O)[C@H](C)NC(=O)CNC(=O)[C@H](Cc2c[nH]c3ccccc23)NC(=O)[C@H](CC(=O)O)NC(=O)[C@H](CCC(N)=O)NC(=O)[C@H](Cc2csc3ccccc23)NC(=O)[C@H](C(C)C)NC1=O` was 1.83; that for `CC[C@H](C)[C@H](NC(C)=O)C(=O)N[C@H]1CSSC[C@@H](C(=O)N[C@H](C(N)=O)[C@@H](C)O)NC(=O)[C@H](CCCNC(=N)N)NC(=O)[C@H](Cc2cnc[nH]2)NC(=O)[C@H](Cc2cnc[nH]2)NC(=O)CNC(=O)[C@H](Cc2c[nH]c3ccccc23)NC(=O)[C@H](CC(=O)O)NC(=O)[C@H](CCC(N)=O)NC(=O)[C@H](Cc2ccccc2)NC(=O)[C@H](C(C)C)NC1=O` (Ac-ICVFQDWGHHRCT-NH2; disulfide 2-12) was 0.721; that for `CC[C@H](C)[C@H](NC(C)=O)C(=O)N[C@H]1CSSC[C@@H](C(=O)N[C@H](C(N)=O)[C@@H](C)O)NC(=O)[C@H](CCCNC(=N)N)NC(=O)[C@H](Cc2cnc[nH]2)NC(=O)[C@H](Cc2cnc[nH]2)NC(=O)CNC(=O)[C@H](Cc2c[nH]c3ccccc23)NC(=O)[C@H](CC(=O)O)NC(=O)[C@H](CC(N)=O)NC(=O)[C@H](C(C)C)NC(=O)[C@H](C(C)C)NC1=O` (Ac-ICVVNDWGHHRCT-NH2; disulfide 2-12) was 0.456.
Then `CC[C@H](C)[C@H](N)C(=O)N[C@H]1CSSC[C@@H](C(=O)N[C@H](C(N)=O)[C@@H](C)O)NC(=O)[C@H](CCCCN)NC(=O)[C@H](Cc2cnc[nH]2)NC(=O)[C@H](Cc2cnc[nH]2)NC(=O)CNC(=O)[C@H](Cc2c[nH]c3ccccc23)NC(=O)[C@H](CC(=O)O)NC(=O)[C@H](CCC(N)=O)NC(=O)[C@H](C(C)C)NC(=O)[C@H](C(C)C)NC1=O` (H-ICVVQDWGHHKCT-NH2; disulfide 2-12), with -0.226; and `CC[C@H](C)[C@H](NC(C)=O)C(=O)N[C@H]1CSSC[C@@H](C(=O)N[C@H](C(N)=O)[C@@H](C)O)NC(=O)[C@H](CCCNC(=N)N)NC(=O)[C@H](Cc2cnc[nH]2)NC(=O)[C@H](C)NC(=O)CNC(=O)[C@H](Cc2c[nH]c3ccccc23)NC(=O)[C@H](CC(=O)O)NC(=O)[C@H](CCC(N)=O)NC(=O)[C@H](CC2CCCCC2)NC(=O)[C@H](C(C)C)NC1=O`, with 0.056; and `CC[C@H](C)[C@H](NC(C)=O)C(=O)N[C@H]1CSSC[C@@H](C(=O)N[C@H](C(N)=O)[C@@H](C)O)NC(=O)[C@H](CCCNC(=N)N)NC(=O)[C@H](Cc2cnc[nH]2)NC(=O)[C@H](Cc2cnc[nH]2)NC(=O)CNC(=O)[C@H](Cc2c[nH]c3ccccc23)NC(=O)[C@H](CC(=O)O)NC(=O)[C@H](CC(N)=O)NC(=O)[C@H](C(C)C)NC(=O)[C@H](CC(C)C)NC1=O` (Ac-ICLVNDWGHHRCT-NH2; disulfide 2-12), with 0.16.
As for `CC(C)C[C@H](N)C(=O)N[C@H]1CSSC[C@@H](C(=O)NCC(N)=O)NC(=O)[C@H](CCCNC(=N)N)NC(=O)[C@H](Cc2cnc[nH]2)NC(=O)[C@H](Cc2c[nH]c3ccccc23)NC(=O)CNC(=O)[C@H](Cc2c[nH]c3ccccc23)NC(=O)[C@H](CC(=O)O)NC(=O)[C@H](CCC(N)=O)NC(=O)[C@H](C(C)C)NC(=O)[C@H](C(C)C)NC1=O` (H-LCVVQDWGWHRCG-NH2; disulfide 2-12), the logIC50 came to 0.617.
The value for `CC(C)[C@@H]1NC(=O)[C@H](C(C)C)NC(=O)[C@@H](N)CSSC[C@@H](C(=O)O)NC(=O)[C@H](CCCNC(=N)N)NC(=O)[C@H](Cc2cnc[nH]2)NC(=O)[C@H](Cc2cnc[nH]2)NC(=O)CNC(=O)[C@H](Cc2c[nH]c3ccccc23)NC(=O)[C@H](CC(=O)O)NC(=O)[C@H](CCC(N)=O)NC1=O` (H-CVVQDWGHHRC-OH; disulfide 1-11) was -0.439.
For `CC[C@H](C)[C@H](NC(C)=O)C(=O)N[C@H]1CSSC[C@@H](C(=O)N[C@H](C(N)=O)[C@@H](C)O)NC(=O)[C@H](CCCNC(=N)N)NC(=O)[C@H](Cc2cnc[nH]2)NC(=O)[C@H](C)NC(=O)CNC(=O)[C@H](Cc2c[nH]c3cc(F)ccc23)NC(=O)[C@H](CC(=O)O)NC(=O)[C@H](CCC(N)=O)NC(=O)[C@H](Cc2c[nH]c3cc(F)ccc23)NC(=O)[C@H](C(C)C)NC1=O`, the logIC50 turned out to be 2.1.
Then `CC[C@H](C)[C@H](NC(C)=O)C(=O)N[C@H]1CSSC[C@@H](C(=O)N[C@H](C(N)=O)[C@@H](C)O)NC(=O)[C@H](CCCNC(=N)N)NC(=O)[C@H](Cc2cnc[nH]2)NC(=O)[C@H](Cc2cnc[nH]2)NC(=O)CNC(=O)[C@H](Cc2c[nH]c3ccccc23)NC(=O)[C@H](CC(=O)O)NC(=O)[C@H](CCC(N)=O)NC(=O)[C@H](Cc2cnc[nH]2)NC(=O)[C@H](C(C)C)NC1=O` (Ac-ICVHQDWGHHRCT-NH2; disulfide 2-12), with 0.708.
In the case of `CC[C@H](C)[C@H](NC(C)=O)C(=O)N[C@H]1CSSC[C@@H](C(=O)N[C@H](C(N)=O)[C@@H](C)O)NC(=O)[C@H](CCCNC(=N)N)NC(=O)[C@H](Cc2cnc[nH]2)NC(=O)[C@H](C)NC(=O)CNC(=O)[C@H](Cc2c[nH]c3ccccc23)NC(=O)[C@H](CC(=O)O)NC(=O)[C@H](CCC(N)=O)NC(=O)[C@H](Cc2cccc3ccccc23)NC(=O)[C@H](C(C)C)NC1=O`, the logIC50 turned out to be 1.99.
The compound `CC(=O)N[C@@H](CCCNC(=N)N)C(=O)N[C@H]1CSSC[C@@H](C(=O)N[C@H](C(N)=O)[C@@H](C)O)NC(=O)[C@H](CCCNC(=N)N)NC(=O)[C@H](Cc2cnc[nH]2)NC(=O)[C@H](Cc2cnc[nH]2)NC(=O)CNC(=O)[C@H](Cc2c[nH]c3ccccc23)NC(=O)[C@H](CC(=O)O)NC(=O)[C@H](CCC(N)=O)NC(=O)[C@H](C(C)C)NC(=O)[C@H](C(C)C)NC1=O` (Ac-RCVVQDWGHHRCT-NH2; disulfide 2-12) gave a logIC50 of 0.176.
The compound `CC[C@H](C)[C@H](NC(C)=O)C(=O)N[C@H]1CSSC[C@@H](C(=O)N[C@H](C(N)=O)[C@@H](C)O)NC(=O)[C@H](CCCNC(=N)N)NC(=O)[C@H](Cc2cnc[nH]2)NC(=O)[C@H](C)NC(=O)CNC(=O)[C@H](Cc2c[nH]c3ccc(F)cc23)NC(=O)[C@H](CC(=O)O)NC(=O)[C@H](CCC(N)=O)NC(=O)[C@H](Cc2c[nH]c3ccccc23)NC(=O)[C@H](C(C)C)NC1=O` had a logIC50 of 2.08.
`CC(C)[C@@H]1NC(=O)[C@H](C(C)C)NC(=O)[C@@H](N)CSSC[C@@H](C(=O)O)NC(=O)[C@H](CCCNC(=N)N)NC(=O)[C@H](Cc2cnc[nH]2)NC(=O)[C@H](C)NC(=O)CNC(=O)[C@H](Cc2c[nH]c3ccccc23)NC(=O)[C@H](CC(=O)O)NC(=O)[C@H](CCC(N)=O)NC1=O` (H-CVVQDWGAHRC-OH; disulfide 1-11) returned a logIC50 of -0.097.
The value for `CSCC[C@H](NC(C)=O)C(=O)N[C@H]1CSSC[C@@H](C(=O)N[C@@H](Cc2ccccc2)C(N)=O)NC(=O)[C@H](CCCNC(=N)N)NC(=O)[C@H](Cc2cnc[nH]2)NC(=O)CNC(=O)CNC(=O)[C@H](Cc2c[nH]c3ccccc23)NC(=O)[C@H](CC(=O)O)NC(=O)[C@H](CCC(N)=O)NC(=O)[C@H](Cc2cnc[nH]2)NC(=O)[C@H](C(C)C)NC1=O` (Ac-MCVHQDWGGHRCF-NH2; disulfide 2-12) was -0.863.
Then `CC[C@H](C)[C@H](NC(C)=O)C(=O)N[C@H]1CSSC[C@@H](C(=O)N[C@H](C(N)=O)[C@@H](C)O)NC(=O)[C@H](C)NC(=O)[C@H](Cc2cnc[nH]2)NC(=O)[C@H](Cc2cnc[nH]2)NC(=O)CNC(=O)[C@H](Cc2c[nH]c3ccccc23)NC(=O)[C@H](CC(=O)O)NC(=O)[C@H](CC(N)=O)NC(=O)[C@H](C(C)C)NC(=O)[C@H](C(C)C)NC1=O` (Ac-ICVVNDWGHHACT-NH2; disulfide 2-12), with -0.699.
The value for `CC(C)C[C@@H]1NC(=O)[C@H](CCCNC(=N)N)NC(=O)CNC(=O)[C@H](Cc2c[nH]c3ccccc23)NC(=O)[C@H](CC(=O)O)NC(=O)[C@H](CCC(N)=O)NC(=O)[C@H](Cc2ccccc2)NC(=O)[C@H](C(C)C)NC(=O)[C@@H](NC(=O)[C@@H](N)CO)CSSC[C@@H](C(=O)N2CCC[C@H]2C(N)=O)NC(=O)[C@H](C)NC1=O` (H-SCVFQDWGRLACP-NH2; disulfide 2-12) was -0.301.
In the case of `CC[C@H](C)[C@H](NC(=O)[C@@H]1CSSC[C@H](NC(=O)[C@@H](NC(C)=O)[C@@H](C)CC)C(=O)N[C@@H](C(C)C)C(=O)N[C@@H](C(C)C)C(=O)N[C@@H](CCC(N)=O)C(=O)N[C@@H](CC(=O)O)C(=O)N[C@@H](Cc2c[nH]c3ccccc23)C(=O)NCC(=O)N[C@@H](Cc2cnc[nH]2)C(=O)N[C@@H](Cc2cnc[nH]2)C(=O)N[C@@H](CCCNC(=N)N)C(=O)N1)C(N)=O` (Ac-ICVVQDWGHHRCI-NH2; disulfide 2-12), the logIC50 came out at 0.574.
The value for `CC[C@H](C)[C@H](NC(C)=O)C(=O)N[C@H]1CSSC[C@@H](C(=O)N[C@H](C(N)=O)[C@@H](C)O)NC(=O)[C@H](CCCNC(=N)N)NC(=O)[C@H](Cc2cnc[nH]2)NC(=O)[C@H](C)NC(=O)CNC(=O)[C@H](Cc2c[nH]c3ccccc23)NC(=O)[C@H](CC(=O)O)NC(=O)[C@H](CCC(N)=O)NC(=O)[C@H](C2Cc3ccccc3C2)NC(=O)[C@H](C(C)C)NC1=O` was 1.58.
Regarding `CC[C@H](C)[C@H](NC(C)=O)C(=O)N[C@H]1CSSC[C@@H](C(=O)N[C@H](C(N)=O)[C@@H](C)O)NC(=O)[C@H](CCCNC(=N)N)NC(=O)[C@H](Cc2cnc[nH]2)NC(=O)[C@H](C)NC(=O)CNC(=O)[C@H](Cc2c[nH]c3ccc(F)cc23)NC(=O)[C@H](CC(=O)O)NC(=O)[C@H](CCC(N)=O)NC(=O)[C@H](Cc2cn(C)c3ccccc23)NC(=O)[C@H](C(C)C)NC1=O`, the logIC50 stood at 2.42.

The values are drawn from ChEMBL document CHEMBL1140602, “A simple, yet highly accurate, QSAR model captures the complement inhibitory activity of compstatin” (Bioorg Med Chem, 2007).
